Results published in the supplement of paper PMC11451515.

Test system: P12-Ichikawa
Experiment: cell viability relative to DMSO control; higher = less cytotoxic
Details: 48 h
Outline: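 Viability is expressed as a percentage of DMSO wells within each plate, and cell-free wells serve as background. Seeding densities in the 1536-well plates (5 μl) were 500 cells/well for NOMO1 or SEM leukemia cells and 1000 cells/well for P12-Ichikawa. Each line was adapted for at least four passages in each medium. Library compounds in DMSO were pin-dosed at 47 μM to 0.79 nM (11 points, threefold), and CellTiter-Glo One luminescence was read after 48 h at 37°C.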

[1] = HPLM + 10% dialyzed FBS, 0.000781 µM
[2] = HPLM + 10% dialyzed FBS, 0.00234 µM
[3] = HPLM + 10% dialyzed FBS, 0.00702 µM
[4] = HPLM + 10% dialyzed FBS, 0.0211 µM
[5] = HPLM + 10% dialyzed FBS, 0.0632 µM
[6] = HPLM + 10% dialyzed FBS, 0.19 µM
[7] = HPLM + 10% dialyzed FBS, 0.569 µM
[8] = HPLM + 10% dialyzed FBS, 1.71 µM
[9] = HPLM + 10% dialyzed FBS, 5.12 µM
[10] = HPLM + 10% dialyzed FBS, 15.4 µM
[11] = HPLM + 10% dialyzed FBS, 46.1 µM
[12] = RPMI 5 mM glucose + 10% FBS, 0.000781 µM
[13] = RPMI 5 mM glucose + 10% FBS, 0.00234 µM
[14] = RPMI 5 mM glucose + 10% FBS, 0.00702 µM
[15] = RPMI 5 mM glucose + 10% FBS, 0.0211 µM
[16] = RPMI 5 mM glucose + 10% FBS, 0.0632 µM
[17] = RPMI 5 mM glucose + 10% FBS, 0.19 µM
[18] = RPMI 5 mM glucose + 10% FBS, 0.569 µM
[19] = RPMI 5 mM glucose + 10% FBS, 1.71 µM
[20] = RPMI 5 mM glucose + 10% FBS, 5.12 µM
[21] = RPMI 5 mM glucose + 10% FBS, 15.4 µM
[22] = RPMI 5 mM glucose + 10% FBS, 46.1 µM
[23] = RPMI 5 mM glucose + 10% dialyzed FBS, 0.000781 µM
[24] = RPMI 5 mM glucose + 10% dialyzed FBS, 0.00234 µM
[25] = RPMI 5 mM glucose + 10% dialyzed FBS, 0.00702 µM
[26] = RPMI 5 mM glucose + 10% dialyzed FBS, 0.0211 µM
[27] = RPMI 5 mM glucose + 10% dialyzed FBS, 0.0632 µM
[28] = RPMI 5 mM glucose + 10% dialyzed FBS, 0.19 µM
[29] = RPMI 5 mM glucose + 10% dialyzed FBS, 0.569 µM
[30] = RPMI 5 mM glucose + 10% dialyzed FBS, 1.71 µM
[31] = RPMI 5 mM glucose + 10% dialyzed FBS, 5.12 µM
[32] = RPMI 5 mM glucose + 10% dialyzed FBS, 15.4 µM
[33] = RPMI 5 mM glucose + 10% dialyzed FBS, 46.1 µM

SMILES	cell viability [1] [%]	cell viability [2] [%]	cell viability [3] [%]	cell viability [4] [%]	cell viability [5] [%]	cell viability [6] [%]	cell viability [7] [%]	cell viability [8] [%]	cell viability [9] [%]	cell viability [10] [%]	cell viability [11] [%]	cell viability [12] [%]	cell viability [13] [%]	cell viability [14] [%]	cell viability [15] [%]	cell viability [16] [%]	cell viability [17] [%]	cell viability [18] [%]	cell viability [19] [%]	cell viability [20] [%]	cell viability [21] [%]	cell viability [22] [%]	cell viability [23] [%]	cell viability [24] [%]	cell viability [25] [%]	cell viability [26] [%]	cell viability [27] [%]	cell viability [28] [%]	cell viability [29] [%]	cell viability [30] [%]	cell viability [31] [%]	cell viability [32] [%]	cell viability [33] [%]
COc1cc([C@@H]2c3cc4c(cc3[C@@H](O[C@@H]3O[C@@H]5CO[C@@H](C)O[C@H]5[C@H](O)[C@H]3O)[C@H]3COC(=O)[C@H]23)OCO4)cc(OC)c1O	87.1	89.5	90.2	80.9	76.8	85.8	73.1	12.1	3.56	1.85	6.17	79.5	86.9	78.2	76	83.6	67.6	51.7	6.56	3.5	3.55	4.21	73.4	78.2	84.7	78.1	78.7	74.1	63.9	8.76	4.69	3.79	4.42
NCC/1=C/NC(=S)N1[C@H]2CCC3=C(F)C=C(F)C=C3C2	127	114	114	126	123	121	119	121	113	111	92.5	134	125	124	120	129	132	139	127	121	116	92.5	124	117	128	126	120	120	119	119	117	110	72.7
CCC[S+](=O)([O-])Nc1ccc(F)c(C(=O)c2c[nH]c3ncc(-c4ccc(Cl)cc4)cc23)c1F	116	110	107	115	114	107	108	105	99.9	98.5	93.5	116	109	117	110	118	110	99.1	110	108	96.4	98.2	124	120	122	120	125	120	113	107	108	103	95.2
CCc1nc(C(N)=O)c(Nc2ccc(N3CCC(N4CCN(C)CC4)CC3)c(OC)c2)nc1NC1CCOCC1	106	103	111	111	114	97.4	97.7	102	91.7	75.1	52.6	103	101	109	117	112	100	98.7	102	88.9	71.1	52.3	110	109	123	111	131	104	108	110	94.8	75.9	42.1
NC(=O)c1c(OCc2c(F)cc(Br)cc2F)nsc1NC(=O)NCCCCN1CCCC1	107	112	103	104	99.9	102	98.8	100	89.5	45.2	43.8	–	–	–	–	–	–	–	–	–	–	–	123	126	116	111	108	111	111	96.7	99.6	46.9	68.1
CC1(C)NC(=O)N(c2ccc([N+](=O)[O-])c(C(F)(F)F)c2)C1=O	96.1	87.3	90.1	89.5	101	90.9	89.6	87.8	77.1	85.2	80	88.4	82.8	82.5	95.2	96.2	92	90.1	74.9	82.8	82.9	75.8	77.6	81	75.6	80	83.4	85.7	78.4	77.2	70.7	75	67.8
COC1=CC=CC(=C1/C2=N/CC3=C(N=C(NC4=CC(=C(C=C4)C(O)=O)OC)N=C3)C5=CC=C(Cl)C=C25)F	82.2	87.8	82.3	87.8	56	16.6	13.5	12	13.9	18.2	20.5	93.8	81.6	77.9	83	49	22.4	16	16	15.8	22.1	28.5	81	80.3	77.8	77.7	49.6	30	24.2	23	27.2	29.7	35.4
CN1C(=O)C(=C/2N(C(=O)N(C3CC3)C(=O)C2=C1/NC4=CC=C(I)C=C4F)C5=CC=CC(=C5)NC(C)=O)\C	121	130	122	123	113	112	101	90.9	12.8	4.68	4.28	–	–	–	–	–	–	–	–	–	–	–	–	–	–	–	–	–	–	–	–	–	–
